According to ChEMBL document CHEMBL1201862, “PubChem BioAssay data set” (2004):
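Each compound was tested at five concentrations against cells in 96-well plates for 48 hours. GI50 = concentration required for 50% inhibition of growth.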 Active and inactive are the calls of the source. No stated cut-off is given here; in the data, active = GI50 up to about 1.1 µM and inactive = higher.

Assays:
Experiment in all cases: NCI tumour cell line growth inhibition, 48 h
M14 = test system: M14
SN12C = test system: SN12C
SF-539 = test system: SF-539
PC-3 = test system: PC-3
SK-MEL-2 = test system: SK-MEL-2
K562 = test system: K562
SW-620 = test system: SW-620
NCI-H23 = test system: NCI-H23
HT-29 = test system: HT-29
U-251 = test system: U-251
SK-OV-3 = test system: SK-OV-3
OVCAR-4 = test system: OVCAR-4
HCT-116 = test system: HCT-116
MCF7 = test system: MCF7
RPMI-8226 = test system: RPMI-8226
UO-31 = test system: UO-31
SK-MEL-28 = test system: SK-MEL-28
SF-268 = test system: SF-268
A498 = test system: A498

Measured: GI50

COc1cc(O)ccc1C(=S)SC
inactive: M14 > 100 µM | SN12C 1.45 µM | SF-539 76.2 µM | PC-3 47.2 µM | SK-MEL-2 > 100 µM | K562 52.8 µM | SW-620 > 100 µM | NCI-H23 40.6 µM | HT-29 > 100 µM | U-251 54.2 µM | SK-OV-3 > 100 µM | OVCAR-4 52 µM | HCT-116 80.9 µM | MCF7 > 100 µM | RPMI-8226 21.8 µM | UO-31 51.6 µM | SK-MEL-28 > 100 µM | SF-268 67.1 µM

CC1=C(O)/C(=C/C(C)CCC/C(C)=C/C=C/C(C)CCCc2ccoc2)OC1=O (configuration not stated)
inactive: M14 36 µM | SN12C 35.3 µM | SF-539 30.3 µM | SK-MEL-2 25.5 µM | SW-620 33.3 µM | NCI-H23 23.7 µM | HT-29 45.4 µM | U-251 37.8 µM | OVCAR-4 29.4 µM | HCT-116 > 10 µM | UO-31 69.2 µM | SK-MEL-28 25 µM | SF-268 26.7 µM

CC(C)(C)OC(=O)NC(Cc1ccccc1)OCc1ccccc1 (configuration not stated)
inactive: M14 17.9 µM | SN12C 26.1 µM | SF-539 21.4 µM | PC-3 13.5 µM | SK-MEL-2 29.4 µM | K562 20.6 µM | SW-620 17.2 µM | NCI-H23 16 µM | HT-29 21.1 µM | U-251 > 10 µM | SK-OV-3 17.6 µM | HCT-116 17.9 µM | MCF7 19.7 µM | RPMI-8226 26 µM | UO-31 17.1 µM | SK-MEL-28 17.9 µM | SF-268 18.4 µM

COc1ccccc1/C=C1\NC(=S)N(/C=C2\C(=O)Oc3ccccc3C2=O)C1=O
inactive: M14 64.1 µM | SN12C > 100 µM | SF-539 25.5 µM | PC-3 44.2 µM | SK-MEL-2 62.1 µM | SW-620 53.2 µM | NCI-H23 35.9 µM | HT-29 43.5 µM | U-251 23.2 µM | SK-OV-3 80.4 µM | OVCAR-4 24.9 µM | HCT-116 14.2 µM | MCF7 71.4 µM | UO-31 21.2 µM | SK-MEL-28 51.5 µM | SF-268 98.6 µM

CSc1nc(NC2OCC(OC(C)=O)C(OC(C)=O)C2OC(C)=O)c2c(n1)OCC2=O (configuration not stated)
inactive: M14 > 100 µM | SN12C > 100 µM | SF-539 > 100 µM | A498 > 100 µM | SK-MEL-2 > 100 µM | K562 > 100 µM | SW-620 > 100 µM | NCI-H23 > 100 µM | HT-29 > 100 µM | U-251 > 100 µM | SK-OV-3 > 100 µM | HCT-116 > 100 µM | RPMI-8226 > 100 µM | UO-31 > 100 µM | SK-MEL-28 > 100 µM | SF-268 > 100 µM

CN(C)CCN(/C(=N/c1ccccc1)N1CCCC1)c1ccccc1
inactive: M14 43.7 µM | SN12C 50.5 µM | PC-3 19.8 µM | SK-MEL-2 > 100 µM | K562 10.3 µM | SW-620 31.7 µM | NCI-H23 31 µM | HT-29 5.01 µM | U-251 68.5 µM | SK-OV-3 > 100 µM | OVCAR-4 49.5 µM | HCT-116 3.91 µM | MCF7 42.5 µM | RPMI-8226 22.6 µM | UO-31 21.9 µM | SK-MEL-28 > 100 µM | SF-268 > 100 µM

CC(=O)OC[C@@H](OC(C)=O)[C@@H](OC(C)=O)[C@H]1OC[C@@H]2C[C@H]([C@H]1OC(C)=O)N(Cc1ccccc1)O2
inactive: M14 > 100 µM | SN12C > 100 µM | SF-539 > 100 µM | PC-3 > 100 µM | SK-MEL-2 > 100 µM | K562 > 100 µM | SW-620 > 100 µM | NCI-H23 > 100 µM | HT-29 > 100 µM | U-251 > 100 µM | SK-OV-3 93.8 µM | OVCAR-4 > 100 µM | HCT-116 > 100 µM | MCF7 > 100 µM | RPMI-8226 > 100 µM | UO-31 61.7 µM | SK-MEL-28 > 100 µM | SF-268 > 100 µM

CC1(C)CC2(S(=O)(=O)c3ccccc3)ON1CC2S(=O)(=O)c1ccccc1 (configuration not stated)
inactive: M14 > 100 µM | SN12C > 100 µM | SF-539 > 100 µM | SK-MEL-2 > 100 µM | K562 47.1 µM | SW-620 > 100 µM | NCI-H23 88.5 µM | HT-29 > 100 µM | U-251 > 100 µM | SK-OV-3 > 100 µM | OVCAR-4 54.6 µM | HCT-116 > 100 µM | RPMI-8226 35.7 µM | UO-31 94.2 µM | SK-MEL-28 86.1 µM | SF-268 > 100 µM

Cc1ccc(NC(=O)CC2C(=O)Nc3ccccc3[S+]2[O-])cc1C (configuration not stated)
inactive: M14 > 100 µM | SN12C > 100 µM | SF-539 23.7 µM | A498 > 100 µM | SK-MEL-2 > 100 µM | K562 91.8 µM | SW-620 66.4 µM | NCI-H23 63.5 µM | HT-29 > 100 µM | U-251 44.3 µM | OVCAR-4 16.4 µM | HCT-116 49.2 µM | RPMI-8226 29 µM | UO-31 42.1 µM | SK-MEL-28 > 100 µM | SF-268 75.2 µM

O=[N+]([O-])c1ccc(NN/N=N/c2ccc(-c3nc4ccccc4s3)cc2)c([N+](=O)[O-])c1
inactive: M14 18.2 µM | SN12C 22.6 µM | SF-539 18.8 µM | A498 4.34 µM | PC-3 24.4 µM | SK-MEL-2 21 µM | K562 22.7 µM | SW-620 37.6 µM | NCI-H23 20.7 µM | HT-29 18.8 µM | U-251 23.4 µM | SK-OV-3 28.7 µM | OVCAR-4 24.6 µM | HCT-116 17.5 µM | UO-31 19.1 µM | SK-MEL-28 33.7 µM | SF-268 26.5 µM

N#Cc1sc2c(c1OC(=O)c1ccco1)c(=O)n(-c1ccccc1)c(=S)n2-c1ccccc1
inactive: M14 25.5 µM | SN12C 27.8 µM | SF-539 26.1 µM | PC-3 18.5 µM | SK-MEL-2 28.8 µM | K562 15 µM | SW-620 17.7 µM | NCI-H23 34.8 µM | HT-29 32.9 µM | U-251 25.3 µM | SK-OV-3 27.7 µM | OVCAR-4 23.6 µM | HCT-116 19.2 µM | MCF7 31.2 µM | RPMI-8226 22.4 µM | UO-31 16 µM | SK-MEL-28 35 µM | SF-268 32.4 µM

O=c1c2ccccc2c(=O)c2c1cc(Cl)c1[nH]c3c([nH]c12)c(Cl)cc1c(=O)c2ccccc2c(=O)c13
inactive: M14 > 100 µM | SN12C > 100 µM | SF-539 > 100 µM | A498 > 100 µM | SK-MEL-2 > 100 µM | K562 > 100 µM | SW-620 > 100 µM | NCI-H23 > 100 µM | HT-29 > 100 µM | U-251 > 100 µM | SK-OV-3 > 100 µM | OVCAR-4 > 100 µM | HCT-116 > 100 µM | RPMI-8226 > 100 µM | UO-31 > 100 µM | SK-MEL-28 > 100 µM | SF-268 > 100 µM

CC(=O)C(CN(C)Cc1ccccc1)C(c1ccccc1)c1c(O)c2ccccc2oc1=O (configuration not stated)
inactive: M14 > 100 µM | SN12C > 100 µM | SF-539 > 100 µM | A498 > 100 µM | SK-MEL-2 > 100 µM | K562 > 100 µM | SW-620 > 100 µM | NCI-H23 > 100 µM | HT-29 > 100 µM | U-251 > 100 µM | SK-OV-3 > 100 µM | OVCAR-4 > 100 µM | HCT-116 > 100 µM | RPMI-8226 58.6 µM | UO-31 16.6 µM | SK-MEL-28 > 100 µM | SF-268 > 100 µM

CCN(CC)[C@@H]1c2cc3c(cc2C(c2cc(OC)c(O)c(OC)c2)C2C(=O)CO[C@@H]21)OCO3 (some centres not stated)
inactive: M14 > 100 µM | SN12C > 100 µM | SF-539 > 100 µM | A498 > 100 µM | SK-MEL-2 > 100 µM | K562 > 100 µM | SW-620 > 100 µM | NCI-H23 > 100 µM | HT-29 > 100 µM | U-251 > 100 µM | SK-OV-3 > 100 µM | OVCAR-4 > 100 µM | HCT-116 > 100 µM | RPMI-8226 > 100 µM | UO-31 > 100 µM | SK-MEL-28 > 100 µM | SF-268 > 100 µM

CC(=O)OC1CC2C(C)(C)OC(=O)CC(OC(C)=O)[C@]2(C)C2CCC3(C)C(=CCC3[C@H]3COC(=O)C3)[C@]12C (some centres not stated)
inactive: M14 32.7 µM | SN12C > 100 µM | SF-539 > 100 µM | A498 96.4 µM | SK-MEL-2 72.3 µM | K562 43.9 µM | SW-620 > 100 µM | NCI-H23 > 100 µM | HT-29 60.5 µM | U-251 > 100 µM | SK-OV-3 > 100 µM | OVCAR-4 > 100 µM | HCT-116 61.5 µM | RPMI-8226 47.1 µM | UO-31 > 100 µM | SK-MEL-28 42.6 µM | SF-268 > 100 µM

COc1cc2c(cc1OC)-c1cc3ccc(OC)c(OC)c3c[n+]1CC2 [PALMATINE CHLORIDE]
inactive: M14 > 100 µM | SN12C > 100 µM | SF-539 > 100 µM | PC-3 > 100 µM | SK-MEL-2 97.1 µM | K562 52.4 µM | SW-620 > 100 µM | HT-29 > 100 µM | U-251 27.9 µM | SK-OV-3 > 100 µM | OVCAR-4 > 100 µM | HCT-116 > 100 µM | MCF7 > 100 µM | RPMI-8226 > 100 µM | UO-31 > 100 µM | SK-MEL-28 > 100 µM | SF-268 82.4 µM
